Data on 22 molecules can be found in patent publication US20190345138A1, “HETEROCYCLIC AMIDES AS KINASE INHIBITORS” (GlaxoSmithKline Intellectual Property Development Limited, priority 2016, published 2019).

For one assay, the target named is T1, RIP1 kinase (Homo sapiens, UniProt Q13546).
T1 sequence (Q13546 1-375 limits assumed): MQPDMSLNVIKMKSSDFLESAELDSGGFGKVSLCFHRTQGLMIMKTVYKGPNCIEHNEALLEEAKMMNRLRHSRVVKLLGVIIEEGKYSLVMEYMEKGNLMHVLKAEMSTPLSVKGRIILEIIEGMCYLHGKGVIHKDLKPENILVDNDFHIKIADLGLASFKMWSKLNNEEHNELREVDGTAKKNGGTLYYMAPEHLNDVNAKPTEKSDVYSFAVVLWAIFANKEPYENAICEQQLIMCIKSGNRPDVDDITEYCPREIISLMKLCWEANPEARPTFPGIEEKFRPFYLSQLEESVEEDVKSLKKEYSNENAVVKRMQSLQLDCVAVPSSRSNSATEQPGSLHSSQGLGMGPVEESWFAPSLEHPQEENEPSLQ
The experiment in a line: fluorescent polarization based binding assay. To be noted: mean of a minimum of 2 experiments. The text has this:
A fluorescent polarization based binding assay was used to assess the activity of the compounds of this invention, the details of which are disclosed in International Patent Appln. No. PCT/IB2014/059004, now, International Patent Appln. Pub.

Assay [1] concerns human monocytic leukemia U937 cells. Kind of assay: necroptosis assay in U937 cells. To be noted: Homo sapiens, U-937, U937 cells; viability by cellular ATP (Cell Titer-Glo); read-out: pIC50, inhibited necrosis in U937 cells (converted). It counts as cell-based. The method, boiled down: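 Necroptosis was induced in human U937 or mouse L929 cells, and viability was quantified as cellular ATP with Cell Titer-Glo. Data are means±standard deviation.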
(In general: In ATP-based viability assays light output follows the ATP content of the culture.)

Values joined by “and” are separate entries in the source; they are usually repeats but may differ in a detail not shown here. Equal entries are not always repeated.

In the case of `O=C(c1ccnc(N2CCC(C(=O)N3N=CC[C@H]3c3ccccc3)CC2)n1)N1CCOCC1` [Example 145, (S)-(1-(4-(morpholine-4-carbonyl)pyrimidin-2-yl)piperidin-4-yl)(5-phenyl-4,5-dihydro-1H-pyrazol-1-yl)methanone], the IC50 at RIP1 kinase was 1 to 31.6 nM; in assay [1], 1 to 100 nM.

`O=C(C1CCN(c2nccc(C3=NCCN3)n2)CC1)N1N=CC[C@H]1c1ccccc1` [Example 140, (S)-(1-(4-(4,5-dihydro-1H-imidazol-2-yl)pyrimidin-2-yl)piperidin-4-yl)(5-phenyl-4,5-dihydro-1H-pyrazol-1-yl)methanone]: the IC50 on RIP1 kinase was 1 to 31.6 nM and 1 to 10 nM; in assay [1], 1 to 100 nM.

With `O=C(C1CCN(c2ccn3nccc3n2)CC1)N1N=CC[C@H]1c1cncc(F)c1` [Example 116, (S)-(5-(5-fluoropyridin-3-yl)-4,5-dihydro-1H-pyrazol-1-yl)(1-(pyrazolo[1,5-a]pyrimidin-5-yl)piperidin-4-yl)methanone], the IC50 at RIP1 kinase is 1 to 31.6 nM; in assay [1], 1 to 100 nM.

`N#Cc1cnc(N2CCC(C(=O)N3N=CC[C@H]3c3cc(F)cc(F)c3)CC2)o1` [Example 133, (S)-2-(4-(5-(3,5-difluorophenyl)-4,5-dihydro-1H-pyrazole-1-carbonyl)piperidin-1-yl)oxazole-5-carbonitrile]: the IC50 at RIP1 kinase is 1 to 31.6 nM and 1 to 10 nM; in assay [1] it was 1 to 100 nM.

As to `O=C(C1CCN(c2ncc3[nH]cnc3n2)CC1)N1N=CC[C@H]1c1ccccc1` [Example 9, (S)-(1-(7H-purin-2-yl)piperidin-4-yl)(5-phenyl-4,5-dihydro-1H-pyrazol-1-yl)methanone], the IC50 at RIP1 kinase is 1 to 31.6 nM; in assay [1] it was 1 to 100 nM.

Consider `NC(=O)c1cnc(N2CCC(C(=O)N3N=CC[C@H]3c3cc(F)cc(F)c3)CC2)nc1` [Example 96, (S)-2-(4-(5-(3,5-difluorophenyl)-4,5-dihydro-1H-pyrazole-1-carbonyl)piperidin-1-yl)pyrimidine-5-carboxamide], for which the IC50 on RIP1 kinase is 1 to 31.6 nM; in assay [1], 1 to 100 nM.

As for `Cc1nc(N)cc(N2CCC(C(=O)N3N=CC[C@H]3c3ccccc3)CC2)n1` [Example 33, (S)-(1-(6-amino-2-methylpyrimidin-4-yl)piperidin-4-yl)(5-phenyl-4,5-dihydro-1H-pyrazol-1-yl)methanone], the IC50 on RIP1 kinase is 1 to 31.6 nM; in assay [1], 1 to 100 nM.

Take `O=C(C1CCN(c2ccnc(C(F)(F)F)n2)CC1)N1N=CC[C@H]1c1ccccc1` [Example 46, (S)-(5-phenyl-4,5-dihydro-1H-pyrazol-1-yl)(1-(2-(trifluoromethyl)pyrimidin-4-yl)piperidin-4-yl)methanone]: the IC50 at RIP1 kinase was 1 to 31.6 nM and 1 to 10 nM; in assay [1], 1 to 100 nM.

Regarding `C#Cc1cc(N2CCC(C(=O)N3N=CC[C@H]3c3cccc(C#N)c3)CC2)ncn1` [Example 158, (S)-3-(1-(1-(6-ethynylpyrimidin-4-yl)piperidine-4-carbonyl)-4,5-dihydro-1H-pyrazol-5-yl)benzonitrile], the values for the IC50 (on RIP1 kinase; in assay [1]) were 1 to 31.6 nM and 1 to 100 nM, respectively.

With `N#Cc1cnc(N2CCC(C(=O)N3N=CC[C@H]3c3cc(F)ccc3F)CC2)cn1` [Example 103, (S)-5-(4-(5-(2,5-difluorophenyl)-4,5-dihydro-1H-pyrazole-1-carbonyl)piperidin-1-yl)pyrazine-2-carbonitrile], the IC50 on RIP1 kinase is 1 to 31.6 nM and 1 to 10 nM; in assay [1], 1 to 100 nM.

For `N#Cc1ccc(N2CCC(C(=O)N3N=CC[C@H]3c3ccccc3)CC2)nn1` [Example 42, (S)-6-(4-(5-phenyl-4,5-dihydro-1H-pyrazole-1-carbonyl)piperidin-1-yl)pyridazine-3-carbonitrile], the IC50 at RIP1 kinase is 1 to 31.6 nM; in assay [1] it was 1 to 100 nM.

Consider `O=C(C1CCN(c2ccc3nccn3n2)CC1)N1N=CC[C@H]1c1ccccc1` [Example 22, (S)-(1-(imidazo[1,2-b]pyridazin-6-yl)piperidin-4-yl)(5-phenyl-4,5-dihydro-1H-pyrazol-1-yl)methanone], for which the IC50 is 1 to 31.6 nM and 1 to 10 nM on RIP1 kinase; 1 to 100 nM in assay [1].

Turning to `N#Cc1cnc(N2CCC(C(=O)N3N=CCC3c3ccccc3)CC2)nc1` (racemic) [Example 2, 2-(4-(5-phenyl-4,5-dihydro-1H-pyrazole-1-carbonyl)piperidin-1-yl)pyrimidine-5-carbonitrile], the IC50 was 1 to 31.6 nM on RIP1 kinase and 1 to 100 nM in assay [1].

`N#Cc1cccc([C@@H]2CC=NN2C(=O)C2CCN(c3ncc(F)c(N)n3)CC2)c1` [Example 72, (S)-3-(1-(1-(4-amino-5-fluoropyrimidin-2-yl)piperidine-4-carbonyl)-4,5-dihydro-1H-pyrazol-5-yl)benzonitrile]: the IC50 on RIP1 kinase is 1 to 31.6 nM; in assay [1], 1 to 100 nM.

With `Nc1ccnc(N2CCC(C(=O)N3N=CC[C@H]3c3cc(F)cc(F)c3)CC2)n1` [Example 93, (S)-(1-(4-aminopyrimidin-2-yl)piperidin-4-yl)(5-(3,5-difluorophenyl)-4,5-dihydro-1H-pyrazol-1-yl)methanone], the IC50 at RIP1 kinase is 1 to 31.6 nM; in assay [1], 1 to 100 nM.

With `O=C(C1CCN(c2ccn3nccc3n2)CC1)N1N=CC[C@H]1c1ccccc1` [Example 21, (S)-(5-phenyl-4,5-dihydro-1H-pyrazol-1-yl)(1-(pyrazolo[1,5-a]pyrimidin-5-yl)piperidin-4-yl)methanone], the IC50 at RIP1 kinase was 1 to 31.6 nM and 1 to 10 nM; in assay [1] it was 1 to 100 nM.

With `O=C(C1CCN(c2nccc(=O)[nH]2)CC1)N1N=CC[C@H]1c1cc(F)cc(F)c1` [Example 97, (S)-2-(4-(5-(3,5-difluorophenyl)-4,5-dihydro-1H-pyrazole-1-carbonyl)piperidin-1-yl)pyrimidin-4(3H)-one], the results for the IC50 (at RIP1 kinase; in assay [1]) were 1 to 31.6 nM and 1 to 100 nM, respectively.

In the case of `NC(=O)Cc1nc(N2CCC(C(=O)N3N=CC[C@H]3c3ccccc3)CC2)ncc1F` [Example 169, (S)-2-(5-fluoro-2-(4-(5-phenyl-4,5-dihydro-1H-pyrazole-1-carbonyl)piperidin-1-yl)pyrimidin-4-yl)acetamide], the IC50 was 1 to 31.6 nM and 1 to 10 nM on RIP1 kinase; 1 to 100 nM in assay [1].

`CSc1nc(N)cc(N2CCC(C(=O)N3N=CC[C@H]3c3ccccc3)CC2)n1` [Example 60, (S)-(1-(6-amino-2-(methylthio)pyrimidin-4-yl)piperidin-4-yl)(5-phenyl-4,5-dihydro-1H-pyrazol-1-yl)methanone]: the results for the IC50 (at RIP1 kinase; in assay [1]) were 1 to 31.6 nM and 1 to 100 nM, respectively.

In the case of `N#Cc1cnc(N2CCC(C(=O)N3N=CC[C@H]3c3ccccc3)CC2)cn1` [Example 40, (S)-5-(4-(5-phenyl-4,5-dihydro-1H-pyrazole-1-carbonyl)piperidin-1-yl)pyrazine-2-carbonitrile], the IC50 on RIP1 kinase is 1 to 31.6 nM and 1 to 10 nM; in assay [1], 1 to 100 nM.

For the molecule `O=C(NCCO)c1ccnc(N2CCC(C(=O)N3N=CC[C@H]3c3ccccc3)CC2)n1` [Example 126, (S)-N-(2-hydroxyethyl)-2-(4-(5-phenyl-4,5-dihydro-1H-pyrazole-1-carbonyl)piperidin-1-yl)pyrimidine-4-carboxamide], the IC50 was 1 to 31.6 nM at RIP1 kinase and 1 to 100 nM in assay [1].

In the case of `O=C(C1CCN(c2cncc(-c3ccccc3)n2)CC1)N1N=CC[C@H]1c1ccccc1` [Example 38, (S)-(5-phenyl-4,5-dihydro-1H-pyrazol-1-yl)(1-(6-phenylpyrazin-2-yl)piperidin-4-yl)methanone], the IC50 at RIP1 kinase is 1 to 31.6 nM; in assay [1] it was 1 to 100 nM.
